pIC50: −log10 of the molar value.
target: FGFR2 (Homo sapiens (Human), UniProt P21802); experiment: FGFR2 Biochemical Caliper Assay; settings: not given
Description: Compounds of the present invention were also tested in a FGFR2 Biochemical Caliper Assay. Compounds were prepared in 10 mM DMSO solution and serially diluted into 11 concentrations by 3-fold dilution. […] 5 uL of ATP solution (100 uM) was added to start the reaction and the plate was incubated for 90 minutes, then 70 uL of stopping buffer (0.5M EDTA) was added to terminate the reaction. Each well was analyzed using EZ reader.

Chain of FGFR2 (P21802 22-821): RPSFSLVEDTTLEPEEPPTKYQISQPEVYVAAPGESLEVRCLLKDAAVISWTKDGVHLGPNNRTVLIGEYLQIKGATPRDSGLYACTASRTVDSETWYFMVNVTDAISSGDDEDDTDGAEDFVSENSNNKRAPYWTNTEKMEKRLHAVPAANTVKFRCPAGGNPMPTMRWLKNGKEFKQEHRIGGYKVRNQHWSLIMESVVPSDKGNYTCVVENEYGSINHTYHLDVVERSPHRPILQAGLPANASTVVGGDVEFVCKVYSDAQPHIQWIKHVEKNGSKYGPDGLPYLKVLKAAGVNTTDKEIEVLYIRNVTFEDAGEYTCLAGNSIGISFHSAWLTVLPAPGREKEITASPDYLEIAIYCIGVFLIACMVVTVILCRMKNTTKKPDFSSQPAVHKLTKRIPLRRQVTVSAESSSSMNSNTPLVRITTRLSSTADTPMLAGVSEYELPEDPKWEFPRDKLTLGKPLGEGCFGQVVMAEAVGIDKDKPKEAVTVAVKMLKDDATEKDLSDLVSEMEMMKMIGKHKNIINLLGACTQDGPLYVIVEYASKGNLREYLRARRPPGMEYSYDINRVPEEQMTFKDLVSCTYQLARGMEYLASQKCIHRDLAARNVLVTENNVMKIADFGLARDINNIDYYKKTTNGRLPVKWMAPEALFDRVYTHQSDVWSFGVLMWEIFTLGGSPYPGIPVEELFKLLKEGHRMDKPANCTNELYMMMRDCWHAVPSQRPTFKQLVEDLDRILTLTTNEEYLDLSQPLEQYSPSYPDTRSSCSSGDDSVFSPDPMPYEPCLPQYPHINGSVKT

| Structure (SMILES) | pIC50 |
| --- | --- |
| C=C(C)C(=O)Nc1ccc(-c2c(-c3ccc(C(=O)N4CCC[C@@H]4COC)cc3)c3c(N)ncnc3n2C)cc1 [Example 361] | 6.00 to 6.60 |
| C=C(C)C(=O)Nc1ccc(-c2c(-c3ccc(C(=O)N4CCCC4)cc3F)c3c(N)ncnc3n2C)cc1 [Example 537] | 6.60 to 7.00 |
| C=C(C)C(=O)Nc1ccc(-c2c(-c3ccc(C(=O)N4CCC(F)(F)C4)cc3)c3c(N)ncnc3n2C)cc1 [Example 137] | 6.00 to 6.60 |
| C=C(C)C(=O)Nc1ccc(-c2c(-c3ccc(N4CCNC4=O)cc3)c3c(N)ncnc3n2C)cc1 [Example 194] | 6.00 to 6.60 |
| C=C(C)C(=O)Nc1ccc(-c2c(-c3ccc(S(=O)(=O)N(C)CC(F)(F)F)cc3)c3c(N)ncnc3n2C)cc1 [Example 316] | 6.00 to 6.60 |
| C=Cc1ncc(-c2c(-c3ccc(C(=O)N4CCCC4)cc3)c3c(N)ncnc3n2C)cn1 [Example 554] | 6.00 to 6.60 |
| Cc1cccc(Oc2ccc(-c3c(-c4cnn(C5CCN(C(=O)/C=C/CN6CCOCC6)CC5)c4)n(C)c4ncnc(N)c34)cc2)n1 [Example 646] | 6.60 to 7.00 |
| C=C(C)C(=O)Nc1ccc(-c2c(-c3cncc(N4CCOCC4)c3)c3c(N)ncnc3n2C)cc1 [Example 166] | 4.00 to 6.00 |
| C=C(C)C(=O)Nc1ccc(-c2c(-c3ccc(C(=O)NC4C5COCC54)cc3)c3c(N)ncnc3n2C)cc1 (stereo not shown) [Example 352] | 6.00 to 6.60 |
| C=CC(=O)N1CCC(c2c(-c3ccc(Oc4cccc(C)n4)c(OC)c3)c3c(N)ncnc3n2C)C1 (stereo not shown) [Example 670] | 6.00 to 6.60 |
| C=CC(=O)N1CCC(c2c(-c3ccc(Cn4ccccc4=O)cc3)c3c(N)ncnc3n2C)C1 (stereo not shown) [Example 794] | 4.00 to 6.00 |
| C=CC(=O)N1CCC(c2nc(-c3c(-c4ccc(Oc5cccc(C)n5)cc4)c4c(N)ncnc4n3C)no2)CC1 [Example 660] | > 7.00 |

Second part, the molecule after the results:

| pIC50 | Structure (SMILES) |
| --- | --- |
| > 7.00 | C=CC(=O)N1CCCC(n2cc(-c3c(-c4ccc(Oc5cccc(C)n5)cc4)c4c(N)ncnc4n3C)cn2)C1 (stereo not shown) [Example 629] |
| > 7.00 | C=CC(=O)N1CC=C(c2c(-c3ccc(Oc4ccc(C)cn4)c(OC)c3)c3c(N)ncnc3n2C)CC1 [Example 683] |
| > 7.00 | C=CC(=O)N1CCC(c2c(-c3ccc(C(=O)Nc4ccccn4)cc3)c3c(N)ncnc3n2C)C1 (stereo not shown) [Example 725] |
| > 7.00 | C=C(C)C(=O)Nc1ccc(-c2c(-c3ccc(Oc4nccc(C)n4)c(F)c3)c3c(N)ncnc3n2C)c(C)c1 [Example 529] |
| > 7.00 | C=CC(=O)N1CCC(c2c(-c3ccc(C(=O)c4ccccc4)cc3)c3c(N)ncnc3n2C)C1 (stereo not shown) [Example 760] |
| > 7.00 | C=C(C)C(=O)Nc1ccc(-c2c(-c3ccc(Oc4nccc(C)n4)c(F)c3)c3c(N)ncnc3n2C)c(F)c1 [Example 482] |
| > 7.00 | C=C(C)C(=O)Nc1ccc(-c2c(-c3ccc(C(=O)N4CC5CCC4C5)cc3)c3c(N)ncnc3n2C)cc1 (stereo not shown) [Example 258] |
| > 7.00 | C=C(C)C(=O)Nc1ccc(-c2c(-c3ccc(Oc4nccc(C)n4)c(F)c3)c3c(N)ncnc3n2C)c(COC)c1 [Example 500] |
| > 7.00 | C=CC(=O)N1CCC(c2c(-c3ccc(OC4CCCC4)cc3)c3c(N)ncnc3n2C)C1 (stereo not shown) [Example 716] |
| > 7.00 | C=C(C)C(=O)Nc1ccc(-c2c(-c3ccc(C(=O)N4CC5CC5C4)cc3)c3c(N)ncnc3n2C)c(F)c1 (stereo not shown) [Example 487] |
| > 7.00 | C=C(C)C(=O)Nc1ccc(-c2c(C3=CC[C@H](C(=O)N4CCCC4)CC3)c3c(N)ncnc3n2C)cc1 (single isomer, unassigned) [Example 398] |
| > 7.00 | C=C(C)C(=O)Nc1ccc(-c2c(-c3ccc(Oc4cccc(C)n4)cc3)c3c(N)ncnc3n2C2CC(O)C2)cc1 (stereo not shown) [Example 90] |
| > 7.00 | C=C(C)C(=O)Nc1ccc(-c2c(-c3ccc(Oc4nccc(C(F)F)n4)c(F)c3)c3c(N)ncnc3n2C)cc1 [Example 514] |
| > 7.00 | Cc1cccc(Oc2ccc(-c3c(-c4ccc(NC#N)cc4)n(C)c4ncnc(N)c34)cc2)n1 [Example 476] |
| > 7.00 | C=CC(=O)N1CC=C(c2c(-c3ccc(OC)cc3)c3c(N)ncnc3n2C)CC1 [Example 654] |
| > 7.00 | C=C(C)C(=O)Nc1ccc(-c2c(-c3cc(F)c(Oc4nccc(C)n4)c(F)c3)c3c(N)ncnc3n2C)cc1 [Example 447] |
| > 7.00 | C=C(C)C(=O)Nc1ccc(-c2c(-c3ccc(C(=O)NCC4CCC4)c(OC)c3)c3c(N)ncnc3n2C)cc1 [Example 391] |

system: SNU16 cells; experiment: SNU16 Cancer Cell Line Proliferation Assay; format: cell-based; settings: Homo sapiens; SNU-16 cells
Procedure, shortened: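 SNU16 cells were seeded, held 24 h at 37 degrees, then dosed with an 11-point 3-fold dilution series prepared from a 10 mM DMSO stock. After 96 h incubation, viability was read by CellTiter Glo luminescence.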

| Structure (SMILES) | pIC50 |
| --- | --- |
| C=C(C)C(=O)Nc1ccc(-c2c(-c3ccc(C(=O)N4CCC[C@@H]4COC)cc3)c3c(N)ncnc3n2C)cc1 [Example 361] | 6.00 to 6.60 |
| C=C(C)C(=O)Nc1ccc(-c2c(-c3ccc(C(=O)N4CCCC4)cc3F)c3c(N)ncnc3n2C)cc1 [Example 537] | ≥ 7.00 |
| C=C(C)C(=O)Nc1ccc(-c2c(-c3ccc(C(=O)N4CCC(F)(F)C4)cc3)c3c(N)ncnc3n2C)cc1 [Example 137] | ≥ 7.00 |
| C=C(C)C(=O)Nc1ccc(-c2c(-c3ccc(N4CCNC4=O)cc3)c3c(N)ncnc3n2C)cc1 [Example 194] | 6.00 to 6.60 |
| C=C(C)C(=O)Nc1ccc(-c2c(-c3ccc(S(=O)(=O)N(C)CC(F)(F)F)cc3)c3c(N)ncnc3n2C)cc1 [Example 316] | 6.00 to 6.60 |
| C=Cc1ncc(-c2c(-c3ccc(C(=O)N4CCCC4)cc3)c3c(N)ncnc3n2C)cn1 [Example 554] | 6.00 to 6.60 |
| Cc1cccc(Oc2ccc(-c3c(-c4cnn(C5CCN(C(=O)/C=C/CN6CCOCC6)CC5)c4)n(C)c4ncnc(N)c34)cc2)n1 [Example 646] | 6.60 to 7.00 |
| C=C(C)C(=O)Nc1ccc(-c2c(-c3cncc(N4CCOCC4)c3)c3c(N)ncnc3n2C)cc1 [Example 166] | 6.00 to 6.60 |
| C=C(C)C(=O)Nc1ccc(-c2c(-c3ccc(C(=O)NC4C5COCC54)cc3)c3c(N)ncnc3n2C)cc1 (stereo not shown) [Example 352] | 6.00 to 6.60 |
| C=CC(=O)N1CCC(c2c(-c3ccc(Oc4cccc(C)n4)c(OC)c3)c3c(N)ncnc3n2C)C1 (stereo not shown) [Example 670] | 6.00 to 6.60 |
| C=CC(=O)N1CCC(c2c(-c3ccc(Cn4ccccc4=O)cc3)c3c(N)ncnc3n2C)C1 (stereo not shown) [Example 794] | 4.00 to 6.00 |
| C=CC(=O)N1CCC(c2nc(-c3c(-c4ccc(Oc5cccc(C)n5)cc4)c4c(N)ncnc4n3C)no2)CC1 [Example 660] | ≥ 7.00 |

The remaining lines, values ahead:

| pIC50 | Structure (SMILES) |
| --- | --- |
| ≥ 7.00 | C=CC(=O)N1CCCC(n2cc(-c3c(-c4ccc(Oc5cccc(C)n5)cc4)c4c(N)ncnc4n3C)cn2)C1 (stereo not shown) [Example 629] |
| ≥ 7.00 | C=CC(=O)N1CC=C(c2c(-c3ccc(Oc4ccc(C)cn4)c(OC)c3)c3c(N)ncnc3n2C)CC1 [Example 683] |
| 6.60 to 7.00 | C=CC(=O)N1CCC(c2c(-c3ccc(C(=O)Nc4ccccn4)cc3)c3c(N)ncnc3n2C)C1 (stereo not shown) [Example 725] |
| ≥ 7.00 | C=C(C)C(=O)Nc1ccc(-c2c(-c3ccc(Oc4nccc(C)n4)c(F)c3)c3c(N)ncnc3n2C)c(C)c1 [Example 529] |
| ≥ 7.00 | C=CC(=O)N1CCC(c2c(-c3ccc(C(=O)c4ccccc4)cc3)c3c(N)ncnc3n2C)C1 (stereo not shown) [Example 760] |
| ≥ 7.00 | C=C(C)C(=O)Nc1ccc(-c2c(-c3ccc(Oc4nccc(C)n4)c(F)c3)c3c(N)ncnc3n2C)c(F)c1 [Example 482] |
| ≥ 7.00 | C=C(C)C(=O)Nc1ccc(-c2c(-c3ccc(C(=O)N4CC5CCC4C5)cc3)c3c(N)ncnc3n2C)cc1 (stereo not shown) [Example 258] |
| ≥ 7.00 | C=C(C)C(=O)Nc1ccc(-c2c(-c3ccc(Oc4nccc(C)n4)c(F)c3)c3c(N)ncnc3n2C)c(COC)c1 [Example 500] |
| ≥ 7.00 | C=CC(=O)N1CCC(c2c(-c3ccc(OC4CCCC4)cc3)c3c(N)ncnc3n2C)C1 (stereo not shown) [Example 716] |
| ≥ 7.00 | C=C(C)C(=O)Nc1ccc(-c2c(-c3ccc(C(=O)N4CC5CC5C4)cc3)c3c(N)ncnc3n2C)c(F)c1 (stereo not shown) [Example 487] |
| ≥ 7.00 | C=C(C)C(=O)Nc1ccc(-c2c(C3=CC[C@H](C(=O)N4CCCC4)CC3)c3c(N)ncnc3n2C)cc1 (single isomer, unassigned) [Example 398] |
| ≥ 7.00 | C=C(C)C(=O)Nc1ccc(-c2c(-c3ccc(Oc4cccc(C)n4)cc3)c3c(N)ncnc3n2C2CC(O)C2)cc1 (stereo not shown) [Example 90] |
| ≥ 7.00 | C=C(C)C(=O)Nc1ccc(-c2c(-c3ccc(Oc4nccc(C(F)F)n4)c(F)c3)c3c(N)ncnc3n2C)cc1 [Example 514] |
| ≥ 7.00 | Cc1cccc(Oc2ccc(-c3c(-c4ccc(NC#N)cc4)n(C)c4ncnc(N)c34)cc2)n1 [Example 476] |
| ≥ 7.00 | C=CC(=O)N1CC=C(c2c(-c3ccc(OC)cc3)c3c(N)ncnc3n2C)CC1 [Example 654] |
| ≥ 7.00 | C=C(C)C(=O)Nc1ccc(-c2c(-c3cc(F)c(Oc4nccc(C)n4)c(F)c3)c3c(N)ncnc3n2C)cc1 [Example 447] |
| ≥ 7.00 | C=C(C)C(=O)Nc1ccc(-c2c(-c3ccc(C(=O)NCC4CCC4)c(OC)c3)c3c(N)ncnc3n2C)cc1 [Example 391] |

Reference: patent US11780845B2 (Relay Therapeutics, Inc., priority 2019, dated 2023)
